14 molecules from patent US11834453B2, “Substituted pyrimido[5,4-d]pyrimidines as HER2 inhibitors” (Array BioPharma Inc., priority 2020, dated 2023) can be followed below.

One data set has as its target EGFR wild type (EGFR WT) (Homo sapiens (Human), UniProt P00533). Description: Cellular phosphorylation assay, EGF-stimulated EGFR phosphorylation in engineered NIH 3T3 cells, Phospho-EGFR DuoSet IC ELISA, Assay 5. In kind it is cell-based. The procedure, abridged:
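Phospho-EGFR ELISA on lysates of engineered NIH 3T3 EGFR WT cells, IC50 derived from concentration curves. Cells plated at 20,000/well overnight, given compound dilutions 1 h at 37 °C, then rEGF 100 ng/ml for a further 10 min before lysis.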

For another data set, the target named is BCRP (Homo sapiens (Human), UniProt Q9UNQ0). Description: BCRP transfected MDCKII canine Mdr1 knockout permeability/efflux, Assay 9. The settings on record: dog, Assay 9 Pe Ratio, efflux ratio Papp(B-A)/Papp(A-B), BCRP transfected MDCKII canine Mdr1 knockout.
The target in data set [1] is ErbB2 with Exon 20 YVMA insertion (HER2-YVMA) (Homo sapiens (Human), UniProt P04626, INS775YVMA). Description: Cellular phosphorylation assay, constitutive ErbB2 phosphorylation (Y1196) in engineered NIH 3T3 cells, Assay 4. In kind it is cell-based. The procedure, abridged:
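In-cell Western in NIH 3T3 cells carrying ErbB2 exon 20 YVMA insertion, with no ligand stimulation. One hour compound exposure at 37 °C before fixation and anti-pY1196 plus GAPDH staining with dual-wavelength fluorescence. IC50 derived after GAPDH normalization.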

A further data set addresses MDR1 (P-gp) (Homo sapiens (Human), UniProt P08183). Description: MDR1 transfected MDCKII canine Mdr1 knockout permeability/efflux, Assay 7. The note with it: dog, MDCK-MDR1.
The target in a further data set is ErbB2 WT (Homo sapiens (Human), UniProt P04626). Description: ErbB enzyme assay (CisBio HTRF KinEASE-TK), Assay 2. The format is biochemical. The procedure, abridged: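 Readout is HTRF KinEASE-TK, using Sa-XL665 and cryptate antibody for 1 h at 22 °C, as percent of control between DMSO-only (100) and pre-quenched (0) reactions. The kinase reaction runs 30 min at 22 °C with 1 mM ATP and 250 nM biotinylated TK substrate, in HEPES pH 7.4 with MgCl2 and 2% DMSO.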
Sequence of ErbB2 WT (P04626 23-1255): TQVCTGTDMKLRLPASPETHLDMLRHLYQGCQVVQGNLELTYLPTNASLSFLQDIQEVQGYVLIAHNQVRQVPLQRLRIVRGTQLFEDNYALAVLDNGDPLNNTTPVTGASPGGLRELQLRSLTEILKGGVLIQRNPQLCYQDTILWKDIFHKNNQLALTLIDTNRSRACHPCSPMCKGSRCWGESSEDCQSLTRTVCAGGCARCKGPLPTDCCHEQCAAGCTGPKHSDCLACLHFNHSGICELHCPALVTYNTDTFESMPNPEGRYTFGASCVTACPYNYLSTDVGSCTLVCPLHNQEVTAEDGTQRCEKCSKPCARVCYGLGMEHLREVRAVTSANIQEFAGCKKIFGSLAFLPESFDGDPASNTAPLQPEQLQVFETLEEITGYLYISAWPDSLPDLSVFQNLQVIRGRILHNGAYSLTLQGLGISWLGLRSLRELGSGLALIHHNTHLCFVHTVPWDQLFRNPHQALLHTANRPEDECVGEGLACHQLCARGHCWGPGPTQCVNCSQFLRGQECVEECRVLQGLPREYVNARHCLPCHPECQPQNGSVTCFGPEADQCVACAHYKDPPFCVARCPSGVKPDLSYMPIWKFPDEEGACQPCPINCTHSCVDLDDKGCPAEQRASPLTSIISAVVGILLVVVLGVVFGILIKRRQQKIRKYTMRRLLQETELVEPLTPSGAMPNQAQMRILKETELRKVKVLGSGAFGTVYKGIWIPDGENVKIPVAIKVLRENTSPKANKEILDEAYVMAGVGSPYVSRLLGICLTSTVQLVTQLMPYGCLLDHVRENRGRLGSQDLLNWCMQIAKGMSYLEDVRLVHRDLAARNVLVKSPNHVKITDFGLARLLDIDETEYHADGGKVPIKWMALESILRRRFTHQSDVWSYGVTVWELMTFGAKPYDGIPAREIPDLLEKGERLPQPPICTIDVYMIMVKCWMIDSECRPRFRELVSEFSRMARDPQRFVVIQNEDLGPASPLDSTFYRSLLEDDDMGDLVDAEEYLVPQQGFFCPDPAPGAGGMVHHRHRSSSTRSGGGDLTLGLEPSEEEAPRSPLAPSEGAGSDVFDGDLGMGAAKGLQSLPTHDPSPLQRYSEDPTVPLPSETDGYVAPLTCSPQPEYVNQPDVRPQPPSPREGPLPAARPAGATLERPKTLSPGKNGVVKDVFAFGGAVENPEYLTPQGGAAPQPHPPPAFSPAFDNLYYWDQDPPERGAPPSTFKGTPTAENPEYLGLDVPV
(In TR-FRET formats the signal depends on donor and acceptor labels being close together.)

For a further data set, the target named is EGFR (Homo sapiens (Human), UniProt P00533). Description: ErbB enzyme assay (CisBio HTRF KinEASE-TK), Assay 3. The format is biochemical. The method, boiled down:
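IC50 was taken where a 4-parameter logistic fit crossed 50 percent of control (DMSO 100, pre-quenched 0), read by ratiometric HTRF. Reactions ran 30 min at 22 °C with 1 mM ATP and 250 nM TK-substrate biotin in pH 7.4 HEPES buffer with MgCl2, Triton X-100 and 2% DMSO.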

Data set [2] has as its target ErbB2 insYVMA (HER2-YVMA, SEQ ID NO: 2) (Homo sapiens, UniProt P04626, INS775YVMA/P1170A). Description: biochemical. The settings on record: ErbB2 insYVMA enzyme assay; read-out: Assay 1 IC50.

Sequence of MDR1 (P-gp) (P08183 whole entry): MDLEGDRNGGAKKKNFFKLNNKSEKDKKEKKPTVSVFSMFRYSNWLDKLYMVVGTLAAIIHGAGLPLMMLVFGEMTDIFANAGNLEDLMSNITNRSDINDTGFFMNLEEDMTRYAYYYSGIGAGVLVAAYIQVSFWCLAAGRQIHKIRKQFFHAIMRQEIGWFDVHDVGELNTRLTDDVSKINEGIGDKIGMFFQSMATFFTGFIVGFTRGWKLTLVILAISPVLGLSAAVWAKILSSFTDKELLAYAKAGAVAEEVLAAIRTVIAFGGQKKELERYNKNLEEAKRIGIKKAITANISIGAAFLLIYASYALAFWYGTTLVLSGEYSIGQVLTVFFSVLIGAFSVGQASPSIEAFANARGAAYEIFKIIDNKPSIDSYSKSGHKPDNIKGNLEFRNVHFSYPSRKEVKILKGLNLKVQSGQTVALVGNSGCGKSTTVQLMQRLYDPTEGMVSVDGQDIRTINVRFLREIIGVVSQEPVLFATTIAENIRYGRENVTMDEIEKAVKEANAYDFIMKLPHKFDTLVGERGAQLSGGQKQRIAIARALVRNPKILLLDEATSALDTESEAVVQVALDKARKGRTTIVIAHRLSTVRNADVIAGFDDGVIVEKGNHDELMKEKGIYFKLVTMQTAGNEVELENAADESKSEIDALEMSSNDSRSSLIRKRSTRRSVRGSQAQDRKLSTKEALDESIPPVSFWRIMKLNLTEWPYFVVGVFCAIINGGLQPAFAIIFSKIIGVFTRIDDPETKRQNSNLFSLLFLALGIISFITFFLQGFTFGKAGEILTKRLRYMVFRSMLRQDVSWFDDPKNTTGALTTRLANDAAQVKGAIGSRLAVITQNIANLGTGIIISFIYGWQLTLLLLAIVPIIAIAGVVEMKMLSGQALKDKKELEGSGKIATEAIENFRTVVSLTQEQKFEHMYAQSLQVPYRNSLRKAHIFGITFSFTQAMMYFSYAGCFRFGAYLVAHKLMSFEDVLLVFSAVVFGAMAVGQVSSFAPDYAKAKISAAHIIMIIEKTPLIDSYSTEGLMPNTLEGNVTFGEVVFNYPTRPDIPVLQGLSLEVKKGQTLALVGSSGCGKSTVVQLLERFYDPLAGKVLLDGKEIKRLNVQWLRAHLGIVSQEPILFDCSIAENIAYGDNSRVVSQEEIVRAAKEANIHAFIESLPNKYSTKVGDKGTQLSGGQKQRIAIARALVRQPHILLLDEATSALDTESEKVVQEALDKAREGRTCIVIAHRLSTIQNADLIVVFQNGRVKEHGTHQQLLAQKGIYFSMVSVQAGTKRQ
Sequence of ErbB2 with Exon 20 YVMA insertion (HER2-YVMA) (P04626 other isoform, or with tags, fused parts or gaps ins YVMA behind 775): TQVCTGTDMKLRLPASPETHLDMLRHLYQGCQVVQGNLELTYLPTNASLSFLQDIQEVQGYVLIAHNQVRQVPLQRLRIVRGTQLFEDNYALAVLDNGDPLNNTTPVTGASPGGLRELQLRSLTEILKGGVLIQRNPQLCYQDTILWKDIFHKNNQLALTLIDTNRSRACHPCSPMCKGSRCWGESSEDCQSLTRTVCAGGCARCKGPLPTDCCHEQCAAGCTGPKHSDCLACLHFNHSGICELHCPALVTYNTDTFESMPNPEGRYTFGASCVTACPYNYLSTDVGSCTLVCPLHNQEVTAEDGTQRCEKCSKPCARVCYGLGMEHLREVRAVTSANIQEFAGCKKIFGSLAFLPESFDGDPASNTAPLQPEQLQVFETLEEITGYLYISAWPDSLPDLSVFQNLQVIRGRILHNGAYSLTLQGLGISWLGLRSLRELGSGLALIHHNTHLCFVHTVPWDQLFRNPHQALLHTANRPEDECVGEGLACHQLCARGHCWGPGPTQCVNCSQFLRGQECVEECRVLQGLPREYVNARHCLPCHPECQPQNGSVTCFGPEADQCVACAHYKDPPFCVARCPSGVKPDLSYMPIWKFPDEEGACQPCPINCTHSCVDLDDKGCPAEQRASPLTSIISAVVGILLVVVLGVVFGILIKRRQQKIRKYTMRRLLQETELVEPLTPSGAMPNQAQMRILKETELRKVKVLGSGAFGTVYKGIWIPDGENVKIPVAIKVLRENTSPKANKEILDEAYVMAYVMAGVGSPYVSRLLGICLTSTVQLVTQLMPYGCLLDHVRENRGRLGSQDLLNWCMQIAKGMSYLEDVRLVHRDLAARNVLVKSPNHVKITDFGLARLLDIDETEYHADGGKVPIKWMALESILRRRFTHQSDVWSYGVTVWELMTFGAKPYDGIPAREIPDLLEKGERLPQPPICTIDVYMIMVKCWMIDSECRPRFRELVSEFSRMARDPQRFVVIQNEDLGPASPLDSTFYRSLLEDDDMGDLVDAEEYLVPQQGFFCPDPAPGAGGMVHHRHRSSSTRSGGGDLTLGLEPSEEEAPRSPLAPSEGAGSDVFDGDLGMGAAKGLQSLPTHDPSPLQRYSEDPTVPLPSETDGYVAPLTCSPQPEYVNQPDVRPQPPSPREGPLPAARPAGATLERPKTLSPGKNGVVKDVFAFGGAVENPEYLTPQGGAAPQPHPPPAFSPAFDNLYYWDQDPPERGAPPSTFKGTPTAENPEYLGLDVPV
Sequence of ErbB2 insYVMA (HER2-YVMA, SEQ ID NO: 2) (P04626 with tags, fused parts or gaps INS775YVMA/P1170A limits assumed): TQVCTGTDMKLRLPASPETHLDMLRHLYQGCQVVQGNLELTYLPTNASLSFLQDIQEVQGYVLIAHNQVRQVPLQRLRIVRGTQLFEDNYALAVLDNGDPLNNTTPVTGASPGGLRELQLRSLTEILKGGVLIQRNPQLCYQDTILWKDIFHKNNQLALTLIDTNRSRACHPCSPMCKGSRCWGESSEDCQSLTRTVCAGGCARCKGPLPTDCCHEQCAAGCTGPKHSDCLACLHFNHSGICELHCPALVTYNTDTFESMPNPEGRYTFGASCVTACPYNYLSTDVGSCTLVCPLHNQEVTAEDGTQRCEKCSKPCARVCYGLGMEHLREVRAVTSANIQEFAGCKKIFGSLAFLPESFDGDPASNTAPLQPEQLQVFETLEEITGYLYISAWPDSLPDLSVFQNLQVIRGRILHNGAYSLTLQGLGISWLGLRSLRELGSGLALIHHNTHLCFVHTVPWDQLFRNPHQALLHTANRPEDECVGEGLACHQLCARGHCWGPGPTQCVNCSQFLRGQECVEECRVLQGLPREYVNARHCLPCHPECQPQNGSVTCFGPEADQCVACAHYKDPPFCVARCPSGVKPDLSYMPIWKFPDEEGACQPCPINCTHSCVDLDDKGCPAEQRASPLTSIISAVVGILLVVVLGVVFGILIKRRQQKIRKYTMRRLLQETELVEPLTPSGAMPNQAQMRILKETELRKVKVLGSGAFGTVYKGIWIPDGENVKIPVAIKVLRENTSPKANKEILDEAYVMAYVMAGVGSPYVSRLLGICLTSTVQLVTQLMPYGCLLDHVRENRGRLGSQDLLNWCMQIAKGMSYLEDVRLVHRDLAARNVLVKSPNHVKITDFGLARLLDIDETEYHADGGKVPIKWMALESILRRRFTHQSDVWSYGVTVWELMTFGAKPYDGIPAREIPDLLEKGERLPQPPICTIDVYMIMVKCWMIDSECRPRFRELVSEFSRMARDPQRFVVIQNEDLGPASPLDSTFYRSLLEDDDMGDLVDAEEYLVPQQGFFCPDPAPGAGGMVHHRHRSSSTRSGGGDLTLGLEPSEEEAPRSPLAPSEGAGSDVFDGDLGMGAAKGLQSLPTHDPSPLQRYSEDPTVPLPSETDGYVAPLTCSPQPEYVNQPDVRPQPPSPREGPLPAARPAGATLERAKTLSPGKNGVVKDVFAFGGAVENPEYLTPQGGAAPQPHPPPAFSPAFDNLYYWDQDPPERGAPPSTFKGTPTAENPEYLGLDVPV

In the case of `Cc1cc(Nc2ncnc3cnc(N(C)[C@H]4C[C@](C)(O)C4)nc23)ccc1Oc1ccc2c(c1)ncn2C` [Example 171, (1r,3r)-1-methyl-3-(methyl(8-((3-methyl-4-((1-methyl-1H-benzo[d]imidazol-5-yl)oxy)phenyl)amino)pyrimido[5,4-d]pyrimidin-2-yl)amino)cyclobutan-1-ol], the IC50 (as a rule, the midpoint of a concentration-inhibition curve) on EGFR wild type (EGFR WT) was at least 5000 nM; in data set [1], 7.1 nM; against ErbB2 WT, 5.9 nM; against EGFR it was 472 nM; in data set [2] it was 13.5 nM. Further, the efflux ratio (as a rule, a quotient of directional permeabilities that is used to spot active efflux) at 2 h, 1 μM at BCRP turned out to be 8.6; at MDR1 (P-gp), 1.9.
`Cc1cc(Nc2ncnc3cnc(N4CCN[C@H](C(F)(F)F)C4)nc23)ccc1Oc1ccc2c(c1)ncn2C` [Example 172, (S)—N-(3-methyl-4-((1-methyl-1H-benzo[d]imidazol-5-yl)oxy)phenyl)-6-(3-(trifluoromethyl)piperazin-1-yl)pyrimido[5,4-d]pyrimidin-4-amine]: the IC50 on EGFR wild type (EGFR WT) is at least 5000 nM; in data set [1], 26.2 nM; at ErbB2 WT it was 35.2 nM; at EGFR, 8920 nM; in data set [2] it was 31 nM. Besides, the efflux ratio at 2 h, 1 μM at BCRP was determined as 2; at MDR1 (P-gp) it was 1.5.
As for `Cc1cc(Nc2ncnc3cnc(N4CC[C@H](C#N)C4)nc23)ccc1Oc1ccc2c(c1)ncn2C` [Example 173, (S)-1-(8-((3-methyl-4-((1-methyl-1H-benzo[d]imidazol-5-yl)oxy)phenyl)amino)pyrimido[5,4-d]pyrimidin-2-yl)pyrrolidine-3-carbonitrile], the IC50 at EGFR wild type (EGFR WT) was at least 5000 nM; in data set [1] it was 22.6 nM; against ErbB2 WT it was 50.5 nM; at EGFR, at least 10000 nM; in data set [2], 21.8 nM. The results for the efflux ratio at 2 h, 1 μM at BCRP and on MDR1 (P-gp) were 4.3 and 1.2, respectively.
For `Cc1cc(Nc2ncnc3cnc(N(C)C4COC4)nc23)ccc1Oc1ccc2c(c1)ncn2C` [Example 175, N2-methyl-N8-(3-methyl-4-((1-methyl-1H-benzo[d]imidazol-5-yl)oxy)phenyl)-N2-(oxetan-3-yl)pyrimido[5,4-d]pyrimidine-2,8-diamine], the IC50 against EGFR wild type (EGFR WT) was at least 5000 nM; in data set [1] it was 13.9 nM; against ErbB2 WT, 6.3 nM; against EGFR it was 6510 nM; in data set [2] it was 4.2 nM. The efflux ratio at 2 h, 1 μM on BCRP was found to be 1.5; at MDR1 (P-gp), 1.4.
Regarding `Cc1cc(Nc2ncnc3cnc(N(C)[C@H]4CCC[C@@H]4O)nc23)ccc1Oc1ccc2c(c1)ncn2C` [Example 176, (1S,2S)-2-(methyl(8-((3-methyl-4-((1-methyl-1H-benzo[d]imidazol-5-yl)oxy)phenyl)amino)pyrimido[5,4-d]pyrimidin-2-yl)amino)cyclopentan-1-ol], the IC50 against EGFR wild type (EGFR WT) is at least 5000 nM; in data set [1] it was 25.4 nM; on ErbB2 WT, 30.8 nM; on EGFR, 1250 nM; in data set [2], 32.2 nM. For the same molecule, the values for the efflux ratio at 2 h, 1 μM on BCRP and at MDR1 (P-gp) were 13.5 and 1.4, respectively.
As to `Cc1cc(Nc2ncnc3cnc(N4CC[C@](C)(O)C4)nc23)ccc1Oc1ccc2c(c1)ncn2C` [Example 179, (S)-3-methyl-1-(8-((3-methyl-4-((1-methyl-1H-benzo[d]imidazol-5-yl)oxy)phenyl)amino)pyrimido[5,4-d]pyrimidin-2-yl)pyrrolidin-3-ol], the IC50 against EGFR wild type (EGFR WT) was at least 5000 nM; in data set [1], 28.2 nM; on ErbB2 WT, 12.9 nM; against EGFR it was 3830 nM; in data set [2], 10.1 nM. Moreover, the efflux ratio at 2 h, 1 μM at BCRP turned out to be 15.3; at MDR1 (P-gp), 1.9.
For the molecule `Cc1cc(Nc2ncnc3cnc(N4CCN5CCOC[C@H]5C4)nc23)ccc1Oc1ccc2c(c1)ncn2C` [Example 180, (R)-6-(hexahydropyrazino[2,1-c][1,4]oxazin-8(1H)-yl)-N-(3-methyl-4-((1-methyl-1H-benzo[d]imidazol-5-yl)oxy)phenyl)pyrimido[5,4-d]pyrimidin-4-amine], the IC50 against EGFR wild type (EGFR WT) is at least 5000 nM; in data set [1], 15.4 nM; against ErbB2 WT, 20.9 nM; at EGFR, 4590 nM; in data set [2], 13.2 nM. The efflux ratio at 2 h, 1 μM is 2.7 on BCRP and 1.3 on MDR1 (P-gp).
With `Cc1cc(Nc2ncnc3cnc(N4CCN[C@@H](C(F)(F)F)C4)nc23)ccc1Oc1ccc2c(c1)ncn2C` [Example 182, (R)—N-(3-methyl-4-((1-methyl-1H-benzo[d]imidazol-5-yl)oxy)phenyl)-6-(3-(trifluoromethyl)piperazin-1-yl)pyrimido[5,4-d]pyrimidin-4-amine], the IC50 is at least 5000 nM against EGFR wild type (EGFR WT); 17.7 nM in data set [1]; 34.7 nM against ErbB2 WT; 3130 nM on EGFR; 29.5 nM in data set [2]. The figures for the efflux ratio at 2 h, 1 μM on BCRP and at MDR1 (P-gp) were 1.9 and 1.3, respectively.
With `Cc1cc(Nc2ncnc3cnc(N(C)[C@H]4C[C@@H](O)C4)nc23)ccc1Oc1ccc2c(c1)ncn2C` [Example 183], the concentration for half-maximal inhibition (IC50) is at least 5000 nM on EGFR wild type (EGFR WT); 5.1 nM in data set [1]; 5.8 nM against ErbB2 WT; 1050 nM at EGFR; 4.4 nM in data set [2]. Further, the figures for the efflux ratio at 2 h, 1 μM at BCRP and at MDR1 (P-gp) were 19.5 and 1.7, respectively.
Consider `Cc1cc(Nc2ncnc3cnc(N4CC[C@@H](C#N)C4)nc23)ccc1Oc1ccc2c(c1)ncn2C` [Example 184, (R)-1-(8-((3-methyl-4-((1-methyl-1H-benzo[d]imidazol-5-yl)oxy)phenyl)amino)pyrimido[5,4-d]pyrimidin-2-yl)pyrrolidine-3-carbonitrile], for which the 50% inhibitory concentration (IC50) against EGFR wild type (EGFR WT) is at least 5000 nM; in data set [1] it was 20.2 nM; against ErbB2 WT, 38.1 nM; against EGFR, at least 10000 nM; in data set [2], 11.7 nM. The figures for the efflux ratio at 2 h, 1 μM at BCRP and on MDR1 (P-gp) were 4.2 and 1.8, respectively.
For `Cc1cc(Nc2ncnc3cnc(N4C[C@@H](O)C(F)(F)C4)nc23)ccc1Oc1ccc2c(c1)ncn2C` [Example 185, (R)-4,4-difluoro-1-(8-((3-methyl-4-((1-methyl-1H-benzo[d]imidazol-5-yl)oxy)phenyl)amino)pyrimido[5,4-d]pyrimidin-2-yl)pyrrolidin-3-ol], the concentration for half-maximal inhibition (IC50) is at least 5000 nM against EGFR wild type (EGFR WT); 25.2 nM in data set [1]; 12.1 nM at ErbB2 WT; at least 10000 nM against EGFR; 24.3 nM in data set [2]. The figures for the efflux ratio at 2 h, 1 μM at BCRP and on MDR1 (P-gp) were 31.7 and 2, respectively.
Consider `Cc1cc(Nc2ncnc3cnc(N(C)[C@H]4C[C@H](O)C4)nc23)ccc1Oc1ccc2c(c1)ncn2C` [Example 186, (1r,3r)-3-(methyl(8-((3-methyl-4-((1-methyl-1H-benzo[d]imidazol-5-yl)oxy)phenyl)amino)pyrimido[5,4-d]pyrimidin-2-yl)amino)cyclobutan-1-ol], for which the half-inhibitory concentration (IC50) against EGFR wild type (EGFR WT) is at least 5000 nM; in data set [1] it was 4.1 nM; against ErbB2 WT, 3.7 nM; on EGFR, 592 nM; in data set [2], 5.7 nM. The efflux ratio at 2 h, 1 μM on BCRP is 24.2; on MDR1 (P-gp) it was 1.4.
Turning to `Cc1cc(Nc2ncnc3cnc(N4CCN5CCOC[C@@H]5C4)nc23)ccc1Oc1ccc2c(c1)ncn2C` [Example 190, (S)-6-(hexahydropyrazino[2,1-c][1,4]oxazin-8(1H)-yl)-N-(3-methyl-4-((1-methyl-1H-benzo[d]imidazol-5-yl)oxy)phenyl)pyrimido[5,4-d]pyrimidin-4-amine], the half-inhibitory concentration (IC50) against EGFR wild type (EGFR WT) was at least 5000 nM; in data set [1], 14.1 nM; against ErbB2 WT, 35 nM; at EGFR, 8140 nM; in data set [2], 21.5 nM. Moreover, the results for the efflux ratio at 2 h, 1 μM on BCRP and at MDR1 (P-gp) were 4.7 and 1.3, respectively.
For `Cc1cc(Nc2ncnc3cnc(N(C)[C@@H]4CCC[C@H]4O)nc23)ccc1Oc1ccc2c(c1)ncn2C` [Example 193, (1R,2R)-2-(methyl(8-((3-methyl-4-((1-methyl-1H-benzo[d]imidazol-5-yl)oxy)phenyl)amino)pyrimido[5,4-d]pyrimidin-2-yl)amino)cyclopentan-1-ol], the concentration for half-maximal inhibition (IC50) was at least 5000 nM at EGFR wild type (EGFR WT); 45.6 nM in data set [1]; 31 nM on ErbB2 WT; 4570 nM against EGFR; 21.2 nM in data set [2]. Also, the efflux ratio at 2 h, 1 μM at BCRP was 7; at MDR1 (P-gp), 1.6.
